Reference: patent publication US20040002119A1, “Method of predicting cell-based assay results using binding profiles” (priority 2002, published 2004)
“Also recorded” adds a separate entry of the source. Like-named read-outs stand apart in the source and are kept apart here.

Assays:
ERα LBD = target: T1, ERα LBD (Homo sapiens, UniProt P03372); format: binding
T1 sequence (P03372 311-547 limits assumed): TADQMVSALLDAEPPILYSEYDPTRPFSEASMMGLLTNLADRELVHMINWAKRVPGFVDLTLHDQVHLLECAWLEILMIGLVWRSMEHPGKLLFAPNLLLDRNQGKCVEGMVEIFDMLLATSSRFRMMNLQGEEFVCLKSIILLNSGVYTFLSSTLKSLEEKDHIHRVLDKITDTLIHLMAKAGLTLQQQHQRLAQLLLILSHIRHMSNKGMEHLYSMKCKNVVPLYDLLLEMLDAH
Description: The peptide sequences were synthesized with biotin at one end, and coupled to fluorescently distinct microsphere populations (5.6 μm streptavidin-coated latex microsphere particles). Multiple peptides of the same sequence were coupled to microspheres having the same fluorescent label, creating 46 fluorescently distinct microsphere populations (45 peptides plus no-peptide control). The microspheres populations were then multiplexed (combined). Alternatively, the ERα LBD could be coupled to the fluorescent microspheres.
The Estrogen Receptor a Ligand Binding Domain (ERα LBD) was coupled to the fluorophore Alexa 532 (Molecular Probes, Inc., Eugene, Oreg.), which is suitable for use with 532 nm excitation sources. The excitation and emission spectra of Alexa 532 is intermediate between the green-fluorescent Alexa Fluor 488 dye and the orange-fluorescent Alexa Fluor 546 dye.
The resulting binding of peptide to LBD is detected by flow cytometric analysis as is known in the art (see, e.g. WO 01/75443). In the present example, binding of ERα to a microsphere subset was indicated by the acquisition of orange fluorescence, detected using a LX-100 instrument (Luminex Corporation, Austin, Tex.). The above procedure is repeated for each compound to create a library of Binding Profiles.
Binding Profiles for each of the six phage-identified peptides described above were also generated using the same multiplexed assay as described above.

[1] = system: human endometrial cells (Ishikawa cell line); assay: Ishikawa endometrial cell stimulation assay (intrinsic alkaline phosphatase); format: cell-based; conditions: absorbance at 405 nm minus blank; FIG. 13
Protocol: The stimulation of human endometrial cells (Ishikawa cell line) was determined by increases in intrinsic alkaline phosphatase activity. […] The % Emax is defined as 100×(spectrophotometric reading at 405 nm with compound-blank)/(spectrophotometric reading at 405 nm estradiol-blank).

[2] = system: MCF-7 breast cancer cells; assay: MCF-7 cell proliferation assay ([3H]-thymidine incorporation); format: cell-based, human; conditions: CPM, FIG. 11
Protocol: MCF-7 potency=(pEC50 or pIC50)(% cpm max or % cpm min).
Cell proliferation of MCF-7 breast cancer cells was determined by [^3H]-thymidine incorporation. Compounds were tested for their potential to either stimulate MCF-7 proliferation or inhibit proliferation. An EC50 or IC50 was determined for each compound tested.

Compound: 4-OH tamoxifen
- K7P2 peptide binding to ERα LBD over basal (ERα LBD): decreased binding of K7P2 over basal and not
- RAC3 (671-697) binding to ERα LBD relative to unliganded ERα LBD (ERα LBD): decreases
- T1P3 peptide binding to ERα LBD over basal (ERα LBD): increased binding of T1P3 over basal
- binding of ERα LBD to coactivator, coregulator and corepressor peptides compared to basal (no compound) (ERα LBD): reduced the amount of peptide binding compared to basal binding; also recorded: decreases or only slightly increases binding

Compound: COc1ccc2c(c1)OC(C)(C)[C@@H](c1ccccc1)[C@@H]2c1ccc(OCCN2CCCC2)cc1 [levormeloxifene]
- K7P2 peptide binding to ERα LBD over basal (ERα LBD; phage-identified peptide K7P2, 1 μM compound, FIG. 9): not

Compound: O=C(c1ccc(OCCN2CCCCC2)cc1)c1c(-c2ccc(O)cc2)sc2cc(O)ccc12 [raloxifene]
- stimulation of intrinsic alkaline phosphatase in Ishikawa cells [1]: very low stimulatory activity
- MCF-7 cell proliferation with increasing compound concentration [2]: cell proliferation decreased
